Measured values taken from US9035051B1, “Ghrelin O-acyl transferase inhibitor” (Eli Lilly and Company, priority 2013, dated 2015).

How the values were obtained:
[1] = molecular target: T1, human GOAT (Homo sapiens, UniProt Q96T53); experiment: In vitro cell free human GOAT enzymatic assay; format: biochemical; conditions: GOAT-His/sf9 microsomal membrane enzyme preparation; ELISA of acyl-ghrelin; n=5
T1 construct: His; made in house; host or cells: Sf9 insect cells (baculovirus, pAN51 vector); used as microsomal membrane preparation
T1 sequence (Q96T53 1-435): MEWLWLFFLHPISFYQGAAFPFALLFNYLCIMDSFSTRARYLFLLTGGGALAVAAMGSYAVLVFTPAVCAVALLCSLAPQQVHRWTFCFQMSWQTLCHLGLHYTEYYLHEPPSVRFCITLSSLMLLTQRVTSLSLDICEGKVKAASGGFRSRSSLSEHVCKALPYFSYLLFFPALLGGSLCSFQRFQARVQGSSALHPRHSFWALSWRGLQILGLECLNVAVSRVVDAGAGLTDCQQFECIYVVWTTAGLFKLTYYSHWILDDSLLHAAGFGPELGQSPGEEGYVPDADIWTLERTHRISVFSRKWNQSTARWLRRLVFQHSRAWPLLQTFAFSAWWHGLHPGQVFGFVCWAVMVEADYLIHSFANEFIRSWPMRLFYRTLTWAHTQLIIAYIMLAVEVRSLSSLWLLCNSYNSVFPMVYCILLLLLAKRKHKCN
Procedure: Human GOAT gene (Accession number: NM_001100916) is subcloned to pAN51 baculoviral expression vector. Baculovirus stock is prepared following the Bac-to-Bac Protocol provided by the vendor, Invitrogen, California, USA. Five milliliters of human GOAT baculoviral stock are added to 500 mL Sf9 cells in HyQ SFX-Insect™ media (HyClone catalog number SH30278.02) at the density of 1×10^6 cells per milliliter in a 2 L Erlenmeyer flask. The flask with human GOAT gene infected Sf9 cells is put on a plate shaker at 120 rpm at 28° C. for 48 h. After 48 h incubation, cells are centrifuged at 1,000×g for 10 min at 4° C. The cell pellets are collected and stored at −80° C. in a freezer until ready for further processing.
One gram cell pellets are suspended in 9 mL chilled homogenization buffer (50 mM Tris-HCl, 250 mM sucrose, adjusted to pH 7.5, and sterile filtered through 0.2 μm Millipore filter). The cell suspension is transferred to a Dounce glass homogenizer. Cell pellets are homogenized with 40 strokes on ice. The homogenate is centrifuged at 3,000 rpm in a Beckman swing bucket rotor at 4° C. for 10 min to remove unbroken cells. […]
Prepare ELISA plates (STREPTAVIDIN SPECTRAPLATE™ 384, Perkin Elmer) by blocking with 2% Heat-Inactivated FBS in PBS (40 μL) (Invitrogen) blocking buffer for 3 h. […] Read plates at 450 nm using an Envision Multilabel plate reader. […]

[2] = molecular target: T2, GOAT enzyme (Mus musculus, UniProt P0C7A3); experiment: In vivo dose dependent 3 day BID study for GOAT inhibitor (plasma AG and UAG by ELISA); parameters: species or system male C57BL/6 mice; conditions: 3 days; for AG (% of control) / AG/Total-ghrelin (% of vehicle control) / UAG (% of vehicle control) / increase of UAG: plasma; for increase of UAG / decrease of plasma AG: vs vehicle; for reduction in AG to total ghrelin ratio: vs vehicle-treated control animals
T2 construct: endogenous in cells; host or cells: male C57BL/6 mice (whole animal, oral dosing; plasma AG/UAG read-out)
T2 sequence (P0C7A3 1-435): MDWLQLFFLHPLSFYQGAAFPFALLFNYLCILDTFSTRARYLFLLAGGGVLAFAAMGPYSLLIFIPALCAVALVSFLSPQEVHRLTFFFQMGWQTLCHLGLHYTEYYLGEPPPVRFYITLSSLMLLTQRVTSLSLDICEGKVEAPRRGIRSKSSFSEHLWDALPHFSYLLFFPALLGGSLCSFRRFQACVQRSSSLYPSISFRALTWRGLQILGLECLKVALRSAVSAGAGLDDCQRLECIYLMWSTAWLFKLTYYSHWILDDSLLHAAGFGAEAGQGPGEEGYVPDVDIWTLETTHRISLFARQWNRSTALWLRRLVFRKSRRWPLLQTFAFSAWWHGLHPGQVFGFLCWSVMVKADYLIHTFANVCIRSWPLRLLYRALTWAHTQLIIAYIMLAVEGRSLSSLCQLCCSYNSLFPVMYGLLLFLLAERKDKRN
Procedure: Comparing the change in the ratio of AG to total ghrelin in the compound treated group and that of the vehicle treated group reflects the degree of GOAT enzyme inhibition in vivo, due to the dynamic processing of UAG to AG by the GOAT enzyme. In the in vivo pharmacodynamic studies herein, the levels of AG and UAG in plasma and stomach in the vehicle and compound treated groups are measured by ELISA specifically to these two analytes. The total ghrelin level of each sample is computed as the sum of AG and UAG by these ELISA measurements. The ratio of AG to total ghrelin is defined by the level of AG in each sample divided by the level of total ghrelin in the same sample. The levels of AG, UAG and ratio of AG to total ghrelin in the vehicle treated group is computed and set as 100%. The relative change of these parameters in the compound treated group is then computed to determine the effectiveness of the test compound.
Purchase male C57BL/6 mice from Harlan (Indianapolis, Ind.) at 9 weeks of age. House the mice individually in a temperature-controlled (24° C.) facility with a 12 h light/dark cycle (lights on 2200 h), and allow free access to a standard rodent chow (diet 2014, Harlan) and water. Typically, use the mice when they are 10-13 weeks of age at the time of the study. On day 0 of the experiment, randomize the mice into treatment groups (N=7/group) so each group has similar mean body weights. On day 1 and day 2, treat the animals with vehicle (1% hydroxyethylcellulose, 0.25% Tween 80, 0.05% antifoam) or test compound prepared in the vehicle as suspension at various dosages by oral gavage at 7 am and 7 pm. On day 3, fast the animals, move them into clean cages and dose with vehicle or the test compound again at 8 am by oral gavage. That same day at 1 pm, sacrifice the animals by decapitation to collect blood. For details of blood collection and plasma treatments see Blood collection and Extraction of Ghrelin from Plasma section below.
Collect approximately 600 μL blood into a pre-weighed EDTA tube containing 600 μL (defined as Vpreservative) freshly-prepared preservative (4 mM PEFABLOC® [4-(2-aminoethyl) benzenesulfonyl fluoride hydrochloride], 72 mM NaCl, 58 mM NaF, 0.032 N hydrochloric acid, pH 3.0) and mix immediately. Weigh the tube again and keep on ice. To accurately determine the exact blood volume of each sample using this blood collection procedure, the weight of the blood for each mouse is computed using the following equation: Weight of Blood=(Weight of the tube containing Blood+preservative)−(Weight of the tube containing preservative) Blood volume(Vblood)=(Weight of blood)/1.06
Within 15 minutes after the blood collection, samples are centrifuged at 5000 rpm at 4° C. for 8 min Remove plasma (650 μL) to a 5 mL glass tube containing 1 N hydrochloric acid (65 μL), mix and keep on ice.
AG and UAG are extracted from plasma using SEP-PAK®_C18 column to remove interference prior to performing the ELISA. The solid phase extraction of AG and UAG peptides by SEP-PAK®_C18 columns can be performed on a vacuum manifold (Waters Corp) or using a peristaltic pump. The sample SEP-PAK®_column extraction procedure is independently applied to the plasma sample obtained from each individual mouse. The general extraction protocol is described as follows.
All solutions used for the entire protocol of the SEP-PAK® column extraction should be at ice cold condition. Wet SEP-PAK®_columns (WAT054960, Waters Corp, Milford Mass.) with 99.9% ACN/0.1% TFA (1 mL of solution of 100 mL ACN/0.1 mL TFA). […] Once liquid is removed from the column, stop the pressure. Equilibrate the columns with 3% ACN/0.1% TFA (1 mL of 97 mL water, 3 mL ACN, 0.1 mL TFA). […] Dilute approximately 650 μL acidified plasma (defined as Vplasma added to column) to 1.4 mL ice cold 0.1% TFA. Load all diluted acidified plasma from the previous step onto the columns. […] Wash with 3% ACN/0.1% TFA (0.9 mL of 97 mL water, 3 mL ACN, 0.1 mL TFA). […] Repeat the wash two more times. […]

IC50 [1]: ~192 nM
AG (% of control) ([2]; 0.3 mg/kg oral gavage BID): 101 ± 025 % of control
AG/Total-ghrelin (% of vehicle control) ([2]; 0.3 mg/kg oral gavage BID): 61 ± 04 % of vehicle control
UAG (% of vehicle control) ([2]; 0.3 mg/kg oral gavage BID): 224 ± 035 % of vehicle control
increase of UAG ([2]; 0.3 mg/kg oral gavage BID): 2.24 fold
decrease of plasma AG ([2]; 0.3 mg/kg oral gavage BID): −1%
reduction in AG to total ghrelin ratio ([2]; 0.3 mg/kg oral gavage BID): 39%
AG (% of control) ([2]; 1 mg/kg oral gavage BID): 95 ± 018 % of control
AG/Total-ghrelin (% of vehicle control) ([2]; 1 mg/kg oral gavage BID): 46 ± 011 % of vehicle control
UAG (% of vehicle control) ([2]; 1 mg/kg oral gavage BID): 282 ± 045 % of vehicle control
increase of UAG ([2]; 1 mg/kg oral gavage BID): 2.82 fold
decrease of plasma AG ([2]; 1 mg/kg oral gavage BID): 5%
reduction in AG to total ghrelin ratio ([2]; 1 mg/kg oral gavage BID): 54%
AG (% of control) ([2]; 3 mg/kg oral gavage BID): 55 ± 06 % of control
AG/Total-ghrelin (% of vehicle control) ([2]; 3 mg/kg oral gavage BID): 29 ± 04 % of vehicle control
UAG (% of vehicle control) ([2]; 3 mg/kg oral gavage BID): 253 ± 031 % of vehicle control
increase of UAG ([2]; 3 mg/kg oral gavage BID): 2.53 fold
decrease of plasma AG ([2]; 3 mg/kg oral gavage BID): 45%
reduction in AG to total ghrelin ratio ([2]; 3 mg/kg oral gavage BID): 71%
AG (% of control) ([2]; 10 mg/kg oral gavage BID): 52 ± 010 % of control
AG/Total-ghrelin (% of vehicle control) ([2]; 10 mg/kg oral gavage BID): 23 ± 04 % of vehicle control
UAG (% of vehicle control) ([2]; 10 mg/kg oral gavage BID): 289 ± 044 % of vehicle control
increase of UAG ([2]; 10 mg/kg oral gavage BID): 2.89 fold
decrease of plasma AG ([2]; 10 mg/kg oral gavage BID): 48%
reduction in AG to total ghrelin ratio ([2]; 10 mg/kg oral gavage BID): 77%
SMILES: Cc1nc(N)c(CCC2CCN(C(=O)[C@H](C)NC(=O)C3CC3)CC2)c(Cl)n1 [Example 1, N-[(1S)-2-[4-[2-(4-Amino-6-chloro-2-methyl-pyrimidin-5-yl)ethyl]-1-piperidyl]-1-methyl-2-oxo-ethyl]cyclopropanecarboxamide]
